Legend:
[1] = tested on: PC-3 human tumor xenograft; experiment: PC-3 xenograft, tumor growth; assay type: in vivo; details: Mus musculus; qd × 28
Procedure: (§1) The response of tumors to treatment was determined by comparing the mean tumor weight of the treatment group with the appropriate control group. Percentage inhibition of tumor growth was determined with the following formula: Percentage inhibition=100×[1−(Xf−Xo)/(Yf−Yo)], where Xf and Yf are the mean tumor weights of the treatment and control groups, respectively, on day f, and Xo and Yo are the mean tumor weights of treatment and control groups respectively, on day zero (staged tumor weights after grouping)

Histamine, H3 = biological target: T1, Histamine, H3 (Homo sapiens, UniProt Q9Y5N1); experiment: NovaScreen assay; assay type: binding; details: read-out: Inhibition, 10 μM XL-647
T1 construct: NovaScreen

[2] = biological target: T2, Glutamate, NMDA, Glycine (Stry-insens Site) (Homo sapiens, UniProt Q05586); experiment: NovaScreen assay; assay type: binding; details: read-out: Inhibition, 10 μM XL-647
T2 construct: NovaScreen

[3] = biological target: T3, Potassium Channel, Ca2+ Act., VS (Homo sapiens, UniProt Q12791); experiment: NovaScreen assay; assay type: binding; details: read-out: Inhibition, 10 μM XL-647
T3 construct: NovaScreen

Dopamine, Non-selective = experiment: NovaScreen assay; assay type: binding
Neurokinin, NK1 = biological target: T4, Neurokinin, NK1 (Homo sapiens, UniProt P25103); experiment: NovaScreen assay; assay type: binding; details: read-out: Inhibition, 10 μM XL-647
T4 construct: NovaScreen

[4] = biological target: T5, Muscarinic, M1 (Human Recombinant) (Homo sapiens, UniProt P11229); experiment: NovaScreen assay; assay type: binding
T5 construct: NovaScreen

Histamine, H2 = biological target: T6, Histamine, H2 (Homo sapiens, UniProt P25021); experiment: NovaScreen assay; assay type: binding; details: read-out: Inhibition, 10 μM XL-647
T6 construct: NovaScreen

Oxytocin = biological target: T7, Oxytocin (Homo sapiens, UniProt P30559); experiment: NovaScreen assay; assay type: binding; details: read-out: Inhibition, 10 μM XL-647
T7 construct: NovaScreen

Sigma, Non-selective = experiment: NovaScreen assay; assay type: binding
[5] = tested on: A431 human epidermoid carcinoma xenograft; experiment: A431 xenograft model, tumor growth; assay type: in vivo, mouse; details: for ED50: Mus musculus
Procedure: Female severe combined immunodeficient mice and female athymic nude mice (NCr), 5 to 8 weeks of age and weighing ˜20 to 25 g, were purchased from The Jackson Laboratory and Taconic, respectively. The animals were housed at the Exelixis vivarium facilities according to guidelines outlined by the Exelixis Institutional Animal Care and Use Committee. During all studies, animals were provided food and water ad libitum and housed in a room conditioned at 70° F. to 75° F. and 60% relative humidity.
Before treatment, H1975, A431, or MDA-MB-231 cells were harvested from exponentially growing cultures, detached by brief trypsinization, washed twice in cold HBSS, resuspended in ice-cold HBSS, and implanted either s.c. (H1975, 3×10^6 cells per mouse) or i.d. (A431, 1×10^6 cells per mouse) into the dorsal hind flank or s.c. into the mammary fat pad (MDA-MB-231, 1×10^6 cells per mouse). Palpable tumors were measured by caliper twice weekly until the mean tumor weight was in the range of ˜80 to 120 mg. Tumor weight was determined by measuring perpendicular diameters with a caliper and multiplying the measurements of diameters in two dimensions: tumor […]. Tumor weight (mg) was extrapolated from tumor volume (mm3) by assuming a conversion factor of 1. On the appropriate day after implantation, mice were grouped (10 mice per group) such that the group mean tumor weight was ˜100±15 mg. The mean tumor weight of each animal in the respective control and treatment groups was determined twice weekly during the dosing periods. Tumor xenografts were established in female mice and allowed to reach approximately 100 mg prior to treatment. An example is described in Gendreau S B, Ventura R, Keast P, et al., Inhibition of the T790M Gatekeeper Mutant of the Epidermal Growth Factor Receptor by EXEL-7647, Clin Cancer Res 3713, 13(12) (2007), which is hereby incorporated by reference.
as §1

EMK = biological target: T8, EMK (Homo sapiens, UniProt Q7KZI7); experiment: Chemiluminescent kinase assay; assay type: biochemical
T8 construct: His6 (N)
Procedure: (§2) Further screening was performed using the biochemical assay methods of Example 2. Additional description of the components and concentrations are summarized in Table 8, Table 9, and Table 10, below.

MAP4K3 = biological target: T9, MAP4K3 (Homo sapiens, UniProt Q8IVH8); experiment: Chemiluminescent kinase assay; assay type: biochemical
T9 construct: Kinase domain,; His6 (N)
Procedure: as §2

GSK3β = biological target: T10, GSK3β (Homo sapiens, UniProt P49841); experiment: Chemiluminescent kinase assay; assay type: biochemical
T10 construct: His6 (N); purchased Upstate Biotechnology
Procedure: as §2

Acetylcholinesterase = biological target: T11, Acetylcholinesterase (Homo sapiens, UniProt P22303); experiment: NovaScreen assay; assay type: biochemical; details: read-out: Inhibition, 10 μM XL-647
T11 construct: NovaScreen

T5 sequence (P11229 whole entry): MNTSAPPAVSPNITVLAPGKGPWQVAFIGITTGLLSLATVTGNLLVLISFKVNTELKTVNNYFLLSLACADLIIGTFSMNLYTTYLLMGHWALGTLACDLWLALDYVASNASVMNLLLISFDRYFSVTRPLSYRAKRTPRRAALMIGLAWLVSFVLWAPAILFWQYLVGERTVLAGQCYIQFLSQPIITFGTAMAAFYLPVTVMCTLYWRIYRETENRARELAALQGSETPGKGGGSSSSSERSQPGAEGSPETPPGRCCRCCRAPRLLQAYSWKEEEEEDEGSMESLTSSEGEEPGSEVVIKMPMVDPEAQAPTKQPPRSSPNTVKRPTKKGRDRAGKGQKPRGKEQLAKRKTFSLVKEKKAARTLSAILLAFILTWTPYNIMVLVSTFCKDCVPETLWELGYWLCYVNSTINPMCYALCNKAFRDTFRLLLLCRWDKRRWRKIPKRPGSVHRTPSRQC
T8 sequence (Q7KZI7 whole entry): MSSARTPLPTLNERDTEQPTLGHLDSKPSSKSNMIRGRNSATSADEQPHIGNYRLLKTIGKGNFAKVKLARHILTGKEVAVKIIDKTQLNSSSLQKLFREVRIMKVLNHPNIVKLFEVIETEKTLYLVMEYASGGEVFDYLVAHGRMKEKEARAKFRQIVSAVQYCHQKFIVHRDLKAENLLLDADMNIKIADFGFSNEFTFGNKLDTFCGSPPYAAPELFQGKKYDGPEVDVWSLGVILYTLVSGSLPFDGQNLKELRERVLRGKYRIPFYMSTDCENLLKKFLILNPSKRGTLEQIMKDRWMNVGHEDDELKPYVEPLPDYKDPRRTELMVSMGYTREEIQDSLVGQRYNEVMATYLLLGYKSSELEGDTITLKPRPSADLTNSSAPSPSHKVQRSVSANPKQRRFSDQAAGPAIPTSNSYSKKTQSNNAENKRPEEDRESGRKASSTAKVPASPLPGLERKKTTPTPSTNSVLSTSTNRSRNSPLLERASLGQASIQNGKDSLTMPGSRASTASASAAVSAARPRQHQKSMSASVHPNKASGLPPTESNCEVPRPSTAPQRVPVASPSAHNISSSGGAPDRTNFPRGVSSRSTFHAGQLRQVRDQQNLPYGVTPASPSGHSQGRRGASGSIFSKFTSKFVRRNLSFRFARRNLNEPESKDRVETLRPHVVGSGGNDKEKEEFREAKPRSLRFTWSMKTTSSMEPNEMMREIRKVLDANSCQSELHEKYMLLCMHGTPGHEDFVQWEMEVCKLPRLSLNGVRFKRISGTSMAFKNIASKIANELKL
T4 sequence (P25103 whole entry): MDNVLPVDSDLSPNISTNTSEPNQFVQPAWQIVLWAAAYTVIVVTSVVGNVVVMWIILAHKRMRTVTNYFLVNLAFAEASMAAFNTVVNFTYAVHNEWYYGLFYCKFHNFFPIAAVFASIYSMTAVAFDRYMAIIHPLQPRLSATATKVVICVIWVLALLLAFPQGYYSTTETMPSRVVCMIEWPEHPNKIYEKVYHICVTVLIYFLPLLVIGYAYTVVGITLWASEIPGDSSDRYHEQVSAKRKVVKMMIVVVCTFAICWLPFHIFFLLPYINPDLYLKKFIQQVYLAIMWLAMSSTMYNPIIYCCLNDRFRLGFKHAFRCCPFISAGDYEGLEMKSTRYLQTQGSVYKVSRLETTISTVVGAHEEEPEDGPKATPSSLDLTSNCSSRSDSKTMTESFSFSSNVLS
T7 sequence (P30559 whole entry): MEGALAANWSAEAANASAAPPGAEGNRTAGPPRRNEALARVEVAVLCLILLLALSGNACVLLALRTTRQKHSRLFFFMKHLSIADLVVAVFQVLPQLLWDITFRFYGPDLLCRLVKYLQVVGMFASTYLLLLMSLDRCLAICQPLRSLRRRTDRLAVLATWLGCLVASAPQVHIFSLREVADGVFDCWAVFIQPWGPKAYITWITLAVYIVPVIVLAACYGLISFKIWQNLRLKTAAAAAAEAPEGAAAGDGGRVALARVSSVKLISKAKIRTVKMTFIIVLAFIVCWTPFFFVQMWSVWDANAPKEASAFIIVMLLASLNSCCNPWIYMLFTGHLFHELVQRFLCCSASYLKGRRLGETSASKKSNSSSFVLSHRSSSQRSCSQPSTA
T9 sequence (Q8IVH8 16-273 limits assumed, species assumed): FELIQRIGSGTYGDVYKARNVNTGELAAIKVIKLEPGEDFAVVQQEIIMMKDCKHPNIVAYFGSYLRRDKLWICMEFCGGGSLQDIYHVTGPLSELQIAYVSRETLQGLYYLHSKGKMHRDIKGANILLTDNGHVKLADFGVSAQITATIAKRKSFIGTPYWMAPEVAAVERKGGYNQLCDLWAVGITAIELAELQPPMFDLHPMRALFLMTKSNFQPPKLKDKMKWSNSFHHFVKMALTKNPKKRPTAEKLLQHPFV
T6 sequence (P25021 whole entry): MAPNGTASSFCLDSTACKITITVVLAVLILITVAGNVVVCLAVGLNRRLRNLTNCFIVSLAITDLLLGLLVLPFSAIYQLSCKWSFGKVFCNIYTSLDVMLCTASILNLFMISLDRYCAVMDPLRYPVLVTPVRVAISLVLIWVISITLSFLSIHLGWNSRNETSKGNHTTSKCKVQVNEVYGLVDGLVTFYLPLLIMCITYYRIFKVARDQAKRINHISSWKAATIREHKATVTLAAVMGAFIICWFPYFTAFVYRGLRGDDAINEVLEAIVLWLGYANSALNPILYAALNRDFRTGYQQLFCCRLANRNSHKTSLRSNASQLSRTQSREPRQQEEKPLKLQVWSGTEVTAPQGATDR
T10 sequence (P49841 whole entry): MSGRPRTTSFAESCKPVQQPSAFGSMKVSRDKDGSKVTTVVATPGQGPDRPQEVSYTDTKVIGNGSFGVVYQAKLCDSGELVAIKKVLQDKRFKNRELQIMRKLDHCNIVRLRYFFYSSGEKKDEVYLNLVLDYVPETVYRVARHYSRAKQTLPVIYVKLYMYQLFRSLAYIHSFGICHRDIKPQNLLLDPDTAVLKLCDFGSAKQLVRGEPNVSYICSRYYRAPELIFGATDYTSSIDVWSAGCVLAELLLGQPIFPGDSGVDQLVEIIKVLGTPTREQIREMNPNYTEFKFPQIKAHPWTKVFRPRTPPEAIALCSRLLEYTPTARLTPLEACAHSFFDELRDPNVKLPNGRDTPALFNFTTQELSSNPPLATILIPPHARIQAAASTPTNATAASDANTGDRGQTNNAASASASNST
T1 sequence (Q9Y5N1 whole entry): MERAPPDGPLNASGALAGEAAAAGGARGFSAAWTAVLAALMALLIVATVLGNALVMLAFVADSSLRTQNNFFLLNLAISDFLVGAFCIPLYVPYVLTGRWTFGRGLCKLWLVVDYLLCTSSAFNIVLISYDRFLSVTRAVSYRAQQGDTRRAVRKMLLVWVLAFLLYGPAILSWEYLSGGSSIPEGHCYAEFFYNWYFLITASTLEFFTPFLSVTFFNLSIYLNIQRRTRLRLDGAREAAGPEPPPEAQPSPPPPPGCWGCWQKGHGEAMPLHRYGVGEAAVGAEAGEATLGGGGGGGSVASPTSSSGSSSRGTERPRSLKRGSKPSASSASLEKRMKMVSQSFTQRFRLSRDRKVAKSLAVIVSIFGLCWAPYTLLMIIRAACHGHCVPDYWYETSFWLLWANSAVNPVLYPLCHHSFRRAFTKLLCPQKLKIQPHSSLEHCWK
T3 sequence (Q12791 whole entry): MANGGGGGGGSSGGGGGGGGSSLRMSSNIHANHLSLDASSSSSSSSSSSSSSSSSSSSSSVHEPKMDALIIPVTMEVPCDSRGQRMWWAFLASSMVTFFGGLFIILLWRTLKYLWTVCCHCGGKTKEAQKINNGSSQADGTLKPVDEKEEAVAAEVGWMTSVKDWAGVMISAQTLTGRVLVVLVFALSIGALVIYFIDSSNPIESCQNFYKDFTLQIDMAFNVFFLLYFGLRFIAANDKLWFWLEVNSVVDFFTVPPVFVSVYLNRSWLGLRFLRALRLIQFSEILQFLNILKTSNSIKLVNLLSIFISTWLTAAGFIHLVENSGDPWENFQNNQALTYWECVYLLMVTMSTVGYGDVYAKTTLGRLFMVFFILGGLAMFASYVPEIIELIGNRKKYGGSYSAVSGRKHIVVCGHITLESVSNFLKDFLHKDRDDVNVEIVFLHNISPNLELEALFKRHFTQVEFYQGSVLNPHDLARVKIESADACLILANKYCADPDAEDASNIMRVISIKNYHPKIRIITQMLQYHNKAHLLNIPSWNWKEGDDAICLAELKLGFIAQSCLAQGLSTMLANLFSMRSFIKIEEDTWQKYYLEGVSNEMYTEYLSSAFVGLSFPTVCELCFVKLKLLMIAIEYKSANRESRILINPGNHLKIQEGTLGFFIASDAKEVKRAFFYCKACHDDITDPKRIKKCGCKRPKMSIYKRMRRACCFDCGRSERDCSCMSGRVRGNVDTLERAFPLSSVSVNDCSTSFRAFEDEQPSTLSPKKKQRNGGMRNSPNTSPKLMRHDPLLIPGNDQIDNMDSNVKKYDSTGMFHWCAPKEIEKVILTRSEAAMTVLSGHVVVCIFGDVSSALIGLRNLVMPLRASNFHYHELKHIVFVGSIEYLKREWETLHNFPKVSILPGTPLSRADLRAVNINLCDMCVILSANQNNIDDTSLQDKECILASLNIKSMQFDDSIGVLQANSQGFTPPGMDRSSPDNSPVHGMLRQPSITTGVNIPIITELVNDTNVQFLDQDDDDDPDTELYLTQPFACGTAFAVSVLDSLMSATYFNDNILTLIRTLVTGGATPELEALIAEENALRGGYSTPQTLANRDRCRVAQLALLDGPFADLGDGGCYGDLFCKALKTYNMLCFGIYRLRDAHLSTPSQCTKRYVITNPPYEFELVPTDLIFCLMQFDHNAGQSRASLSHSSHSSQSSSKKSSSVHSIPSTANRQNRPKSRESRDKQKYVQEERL

With COc1cc2c(Nc3ccc(Cl)c(Cl)c3F)ncnc2cc1OC[C@@H]1C[C@@H]2CN(C)C[C@@H]2C1 [XL-647, N-(3,4-dichloro-2-fluorophenyl)-7-({[(3aR,5r,6aS)-2-methyloctahydrocyclopenta[c]pyrrol-5-yl]methyl}oxy)-6-(methyloxy)quinazolin-4-amine] the ED50 [1] was 34 mg/kg, the inhibition at 10 µM (Histamine, H3) was 38.6% and the inhibition at 10 µM [2] was 6.46%. For the same molecule, the inhibition at 10 µM [3] was 22.7%, the “Inhibition, 10 μM XL-647” value (Dopamine, Non-selective) was 34.88% and the inhibition at 10 µM (Neurokinin, NK1) was 20.4%. It also gave an IC50 [4] of 2.33 µM, an inhibition at 10 µM ([4]; read-out: Inhibition, 10 μM XL-647) of 98.1% and an inhibition at 10 µM (Histamine, H2) of 45.7%. For the same molecule, the inhibition at 10 µM (Oxytocin) was -2.59%, the “Inhibition, 10 μM XL-647” value (Sigma, Non-selective) was 50.90% and the tumor growth inhibition ([5]; 10 mg/kg/day oral, 14 days) was 65%. The “final tumor weight (marked regression)” value ([5]; 100 mg/kg/day oral, 14 days, starting weight 109±20 mg) was 36 ± 15 mg, the “tumor growth, in words” value ([5]; 10, 30, and 100 mg/kg/day oral, 14 days) was “significantly inhibited tumor growth in a dose dependent manner” and the ED50 ([5]; A-431, qd × 14) was 5.9 mg/kg. It also gave an ED50 ([5]; A-431, qd × 28) of 3.8 mg/kg, an IC50 (EMK) greater than 10 µM and an IC50 (MAP4K3) greater than 1 µM. It also gave an IC50 (GSK3β) greater than 1 µM and an inhibition at 10 µM (Acetylcholinesterase) of 49.4%.
